From patent US4868321A, “Isothiocyanate intermediates” (FMC Corporation, priority 1988, dated 1989)
Structures can show the parent of a compound that is named as a salt.

Key:
Assay type in all cases: in vivo
[1] = system: Cotton; experiment: Preemergence Herbicidal Activity, Cotton; conditions: Gossypium hirsutum, pre-emergence
Text: (§1) The herbicidal data in the following Tables 3 and 4 was obtained in the manner described in PCT published application no. WO 85/01939, previously mentioned, usually employing solutions of the herbicidal compound in 50/50 acetone/water mixtures. In those tables, the test compounds are identified by numbers which correspond to those in Table 1, "kg/ha" is kilograms per hectare, and "% C" is percent control.

[2] = system: Soybean; experiment: Preemergence Herbicidal Activity, Soybean
Text: (§2) The herbicidal data in the following Tables 3 and 4 was obtained in the manner described in PCT published application no. […] In those tables, the test compounds are identified by numbers which correspond to those in Table 1, "kg/ha" is kilograms per hectare, and "% C" is percent control.

[3] = system: Field Corn; experiment: Preemergence Herbicidal Activity, Field Corn; conditions: Zea mays, pre-emergence
Text: as §2

[4] = system: Rice; experiment: Preemergence Herbicidal Activity, Rice; conditions: Oryza sativa, pre-emergence
Text: as §2

[5] = system: Wheat; experiment: Preemergence Herbicidal Activity, Wheat; conditions: Triticum aestivum, pre-emergence
Text: as §2

[6] = system: Field Bindweed; experiment: Preemergence Herbicidal Activity, Field Bindweed; conditions: pre-emergence
Text: as §1

[7] = system: Morningglory; experiment: Preemergence Herbicidal Activity, Morningglory; conditions: Ipomoea, pre-emergence
Text: as §1

[8] = system: Velvetleaf; experiment: Preemergence Herbicidal Activity, Velvetleaf; conditions: Abutilon theophrasti, pre-emergence
Text: as §1

[9] = system: Barnyardgrass; experiment: Preemergence Herbicidal Activity, Barnyardgrass; conditions: Echinochloa crus-galli, pre-emergence
Text: as §2

[10] = system: Green Foxtail; experiment: Preemergence Herbicidal Activity, Green Foxtail; conditions: Setaria viridis, pre-emergence
Text: as §2

[11] = system: Johnsongrass; experiment: Preemergence Herbicidal Activity, Johnsongrass; conditions: Sorghum halepense, pre-emergence
Text: as §2

[12] = system: Cotton; experiment: Postemergence Herbicidal Activity, Cotton; conditions: Gossypium hirsutum, post-emergence
Text: as §1

[13] = system: Soybean; experiment: Postemergence Herbicidal Activity, Soybean; conditions: Glycine max, post-emergence
Text: as §2

[14] = system: Field Corn; experiment: Postemergence Herbicidal Activity, Field Corn; conditions: Zea mays, post-emergence
Text: as §2

[15] = system: Wheat; experiment: Postemergence Herbicidal Activity, Wheat; conditions: Triticum aestivum, post-emergence
Text: as §2

[16] = system: Field Bindweed; experiment: Postemergence Herbicidal Activity, Field Bindweed; conditions: post-emergence, 8.0 kg/ha
Text: as §1

[17] = system: Morningglory; experiment: Postemergence Herbicidal Activity, Morningglory
Text: as §1

[18] = system: Velvetleaf; experiment: Postemergence Herbicidal Activity, Velvetleaf; conditions: Abutilon theophrasti, post-emergence
Text: as §1

[19] = system: Barnyardgrass; experiment: Postemergence Herbicidal Activity, Barnyardgrass; conditions: Echinochloa crus-galli, post-emergence
Text: as §2

[20] = system: Green Foxtail; experiment: Postemergence Herbicidal Activity, Green Foxtail; conditions: Setaria viridis, post-emergence
Text: as §2

[21] = system: Johnsongrass; experiment: Postemergence Herbicidal Activity, Johnsongrass; conditions: Sorghum halepense, post-emergence
Text: as §2

[22] = system: Rice; experiment: Postemergence Herbicidal Activity, Rice; conditions: Oryza sativa, post-emergence
Text: as §2

CCCS(=O)(=O)N(c1cc(-n2nnn(CCCF)c2=O)ccc1Cl)S(=O)(=O)CCC [Compound 23]
plant injury at 8000 g/ha ([1]; 8.0 kg/ha): 30% | plant injury at 8000 g/ha ([2]; Glycine max, pre-emergence, 8.0 kg/ha): 10% | plant injury at 8000 g/ha ([3]; 8.0 kg/ha): 90% | plant injury at 8000 g/ha ([4]; 8.0 kg/ha): 20% | plant injury at 8000 g/ha ([5]; 8.0 kg/ha): 40% | pest or weed control at 8000 g/ha ([6]; 8.0 kg/ha): 70% | pest or weed control at 8000 g/ha ([7]; 8.0 kg/ha): 70% | pest or weed control at 8000 g/ha ([8]; 8.0 kg/ha): 100% | pest or weed control at 8000 g/ha ([9]; 8.0 kg/ha): 80% | pest or weed control at 8000 g/ha ([10]; 8.0 kg/ha): 95% | pest or weed control at 8000 g/ha ([11]; 8.0 kg/ha): 50% | plant injury at 8000 g/ha ([12]; 8.0 kg/ha): 60% | plant injury at 8000 g/ha ([13]; 8.0 kg/ha): 40% | plant injury at 8000 g/ha ([14]; 8.0 kg/ha): 30% | plant injury at 8000 g/ha ([15]; 8.0 kg/ha): 20% | pest or weed control at 8000 g/ha [16]: 50% | pest or weed control at 8000 g/ha ([17]; Ipomoea, post-emergence, 8.0 kg/ha): 60% | pest or weed control at 8000 g/ha ([18]; 8.0 kg/ha): 100% | pest or weed control at 8000 g/ha ([19]; 8.0 kg/ha): 40% | pest or weed control at 8000 g/ha ([20]; 8.0 kg/ha): 40% | pest or weed control at 8000 g/ha ([21]; 8.0 kg/ha): 40%

CCCS(=O)(=O)N(c1cc(-n2nnn(CCCF)c2=O)c(F)cc1Cl)S(=O)(=O)CCC [Compound 26, 1-[4-chloro-2-fluoro-5-[bis(N--propylsulfonyl)amino]phenyl]-1,4-dihydro-4-(3-fluoropropyl)-5H--tetrazol-5-one]
plant injury at 500 g/ha ([1]; 0.5 kg/ha): 50% | plant injury at 500 g/ha ([2]; Glycine max, pre-emergence, 0.5 kg/ha): 0% | plant injury at 500 g/ha ([3]; 0.5 kg/ha): 90% | plant injury at 500 g/ha ([4]; 0.5 kg/ha): 20% | plant injury at 500 g/ha ([5]; 0.5 kg/ha): 60% | pest or weed control at 500 g/ha ([7]; 0.5 kg/ha): 60% | pest or weed control at 500 g/ha ([8]; 0.5 kg/ha): 100% | pest or weed control at 500 g/ha ([9]; 0.5 kg/ha): 100% | pest or weed control at 500 g/ha ([10]; 0.5 kg/ha): 60% | pest or weed control at 500 g/ha ([11]; 0.5 kg/ha): 95% | plant injury at 500 g/ha ([12]; 0.5 kg/ha): 100% | plant injury at 500 g/ha ([13]; 0.5 kg/ha): 50% | plant injury at 500 g/ha ([14]; 0.5 kg/ha): 100% | plant injury at 500 g/ha ([22]; 0.5 kg/ha): 40% | plant injury at 500 g/ha ([15]; 0.5 kg/ha): 90% | pest or weed control at 500 g/ha ([17]; Ipomoea, post-emergence, 0.5 kg/ha): 100% | pest or weed control at 500 g/ha ([18]; 0.5 kg/ha): 100% | pest or weed control at 500 g/ha ([19]; 0.5 kg/ha): 80% | pest or weed control at 500 g/ha ([20]; 0.5 kg/ha): 80% | pest or weed control at 500 g/ha ([21]; 0.5 kg/ha): 70%

CCS(=O)(=O)Nc1cc(-n2nnn(CCCF)c2=O)c(F)cc1Cl [Compound 31, 1-[4-Chloro-2-fluoro-5-(N--ethylsulfonylamino)phenyl]-1,4-dihydro-4-(3-fluoropropyl)-5H--tetrazol-5-one potassium salt]
plant injury at 250 g/ha ([1]; 0.25 kg/ha): 100% | Preemergence Herbicidal Activity ([2]; 0.25 kg/ha, potassium salt): 10 % Control | plant injury at 250 g/ha ([3]; 0.25 kg/ha): 30% | plant injury at 250 g/ha ([4]; 0.25 kg/ha): 40% | plant injury at 250 g/ha ([5]; 0.25 kg/ha): 20% | pest or weed control at 250 g/ha ([6]; 0.25 kg/ha): 100% | pest or weed control at 250 g/ha ([7]; 0.25 kg/ha): 100% | pest or weed control at 250 g/ha ([8]; 0.25 kg/ha): 100% | pest or weed control at 250 g/ha ([9]; 0.25 kg/ha): 95% | pest or weed control at 250 g/ha ([10]; 0.25 kg/ha): 50% | pest or weed control at 250 g/ha ([11]; 0.25 kg/ha): 70% | plant injury at 250 g/ha ([13]; 0.25 kg/ha): 80% | plant injury at 250 g/ha ([14]; 0.25 kg/ha): 30% | plant injury at 250 g/ha ([22]; 0.25 kg/ha): 40% | plant injury at 250 g/ha ([15]; 0.25 kg/ha): 40% | Postemergence Herbicidal Activity ([17]; 0.25 kg/ha, potassium salt): 100 % Control | pest or weed control at 250 g/ha ([19]; 0.25 kg/ha): 80% | pest or weed control at 250 g/ha ([20]; 0.25 kg/ha): 60% | pest or weed control at 250 g/ha ([21]; 0.25 kg/ha): 60%

CCS(=O)(=O)N(c1cc(-n2nnn(C)c2=O)c(F)cc1Cl)S(=O)(=O)CC [Compound 41, 1-[4-Chloro-2-fluoro-5-[bis(N--ethylsulfonyl)amino]phenyl]-4,5-dihydro-4-methyl-5H--tetrazol-5-one]
plant injury at 2000 g/ha ([1]; 2.0 kg/ha): 95% | plant injury at 2000 g/ha ([2]; Glycine max, pre-emergence, 2.0 kg/ha): 50% | plant injury at 2000 g/ha ([3]; 2.0 kg/ha): 40% | plant injury at 2000 g/ha ([4]; 2.0 kg/ha): 10% | plant injury at 2000 g/ha ([5]; 2.0 kg/ha): 10% | pest or weed control at 2000 g/ha ([6]; 2.0 kg/ha): 100% | pest or weed control at 2000 g/ha ([7]; 2.0 kg/ha): 100% | pest or weed control at 2000 g/ha ([8]; 2.0 kg/ha): 100% | pest or weed control at 2000 g/ha ([9]; 2.0 kg/ha): 80% | pest or weed control at 2000 g/ha ([10]; 2.0 kg/ha): 95% | pest or weed control at 2000 g/ha ([11]; 2.0 kg/ha): 20%
